Measurements as given in PubChem BioAssay (NCI).
Values joined by “and” are separate entries in the source; they are usually repeats but may differ in a detail not shown here. Identical values can stand only once.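 Assay format: 96-well plates, 48-hour exposure. GI50 = concentration required for 50% inhibition of growth. TGI marks complete inhibition of growth.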

Key:
Experiment in all cases: DTP human tumour cell line panel, 48 h
786-0 renal = tested on: 786-0 renal
A498 renal = tested on: A498 renal
A549 NSCLC = tested on: A549 NSCLC
ACHN renal = tested on: ACHN renal
BT-549 breast = tested on: BT-549 breast
COLO 205 colon = tested on: COLO 205 colon
DU-145 prostate = tested on: DU-145 prostate
EKVX NSCLC = tested on: EKVX NSCLC
HCC-2998 colon = tested on: HCC-2998 colon
HCT-116 colon = tested on: HCT-116 colon
HCT-15 colon = tested on: HCT-15 colon
HL-60(TB) leukemia = tested on: HL-60(TB) leukemia
HOP-62 NSCLC = tested on: HOP-62 NSCLC
HOP-92 NSCLC = tested on: HOP-92 NSCLC
HS 578T breast = tested on: HS 578T breast
HT29 colon = tested on: HT29 colon
IGROV1 ovarian = tested on: IGROV1 ovarian
K-562 leukemia = tested on: K-562 leukemia
KM12 colon = tested on: KM12 colon
LOX IMVI melanoma = tested on: LOX IMVI melanoma
M14 melanoma = tested on: M14 melanoma
MCF7 breast = tested on: MCF7 breast
MDA-MB-231 breast = tested on: MDA-MB-231 breast
MDA-MB-435 = tested on: MDA-MB-435
MDA-N = tested on: MDA-N
NCI-H460 lung = tested on: NCI-H460 lung
NCI-H522 lung = tested on: NCI-H522 lung
OVCAR-3 ovarian = tested on: OVCAR-3 ovarian
OVCAR-4 ovarian = tested on: OVCAR-4 ovarian
OVCAR-5 ovarian = tested on: OVCAR-5 ovarian
OVCAR-8 ovarian = tested on: OVCAR-8 ovarian
PC-3 prostate = tested on: PC-3 prostate
SF-268 CNS = tested on: SF-268 CNS
SF-539 CNS = tested on: SF-539 CNS
SK-MEL-2 melanoma = tested on: SK-MEL-2 melanoma
SK-MEL-5 melanoma = tested on: SK-MEL-5 melanoma
SK-OV-3 ovarian = tested on: SK-OV-3 ovarian
SN12C renal = tested on: SN12C renal
SNB-19 CNS = tested on: SNB-19 CNS
SNB-75 CNS = tested on: SNB-75 CNS
T-47D breast = tested on: T-47D breast
TK-10 renal = tested on: TK-10 renal
U251 CNS = tested on: U251 CNS
UACC-257 melanoma = tested on: UACC-257 melanoma
CAKI-1 renal = tested on: CAKI-1 renal
CCRF-CEM leukemia = tested on: CCRF-CEM leukemia
MOLT-4 leukemia = tested on: MOLT-4 leukemia
NCI-H23 lung = tested on: NCI-H23 lung
NCI/ADR-RES ovarian = tested on: NCI/ADR-RES ovarian
RPMI-8226 leukemia = tested on: RPMI-8226 leukemia
RXF 393 renal = tested on: RXF 393 renal
SF-295 CNS = tested on: SF-295 CNS
SK-MEL-28 melanoma = tested on: SK-MEL-28 melanoma
SR leukemia = tested on: SR leukemia
SW-620 colon = tested on: SW-620 colon
UACC-62 melanoma = tested on: UACC-62 melanoma
UO-31 renal = tested on: UO-31 renal

CCOC(=O)Nc1cc2c(c(N)n1)N=C(c1ccc(OC)cc1)CN2
TGI (786-0 renal): 1900 nM
GI50 (A498 renal): 178 nM
TGI (A498 renal): 645 nM and 972 nM
GI50 (A549 NSCLC): 20.4 nM
TGI (A549 NSCLC): 2340 nM
TGI (ACHN renal): 35.7 µM
TGI (BT-549 breast): 80.5 µM
TGI (COLO 205 colon): 196 nM and 146 nM
TGI (DU-145 prostate): 33.3 µM
TGI (EKVX NSCLC): > 100 µM
GI50 (HCC-2998 colon): 18.5 nM
TGI (HCC-2998 colon): 178 nM
TGI (HCT-116 colon): 1310 nM
TGI (HCT-15 colon): > 100 µM
TGI (HL-60(TB) leukemia): 0.00595 µM
TGI (HOP-62 NSCLC): 1490 nM
TGI (HOP-92 NSCLC): 48.2 µM
TGI (HS 578T breast): 9.32 nM
TGI (HT29 colon): 321 nM
GI50 (IGROV1 ovarian): 35.5 nM
TGI (IGROV1 ovarian): 74.1 nM
TGI (K-562 leukemia): 1.32 µM
TGI (KM12 colon): > 100 µM
GI50 (LOX IMVI melanoma): 14.4 nM
TGI (LOX IMVI melanoma): 3.15 µM
TGI (M14 melanoma): 19.1 µM
GI50 (MCF7 breast): 26.4 nM
TGI (MCF7 breast): > 100 µM
GI50 (MDA-MB-231 breast): 3.86 nM
TGI (MDA-MB-231 breast): 392 nM and 78.7 nM
TGI (MDA-MB-435): 0.324 nM
TGI (MDA-N): 1.4 nM
GI50 (NCI-H460 lung): 12 nM
TGI (NCI-H460 lung): 256 nM
TGI (NCI-H522 lung): 6.36 nM
TGI (OVCAR-3 ovarian): 15.6 nM
GI50 (OVCAR-4 ovarian): 11.4 µM
TGI (OVCAR-4 ovarian): 49.4 µM
TGI (OVCAR-5 ovarian): 21.8 µM
TGI (OVCAR-8 ovarian): > 100 µM
GI50 (PC-3 prostate): 1.42 nM
TGI (PC-3 prostate): 52.1 nM and 480 nM
TGI (SF-268 CNS): > 100 µM
GI50 (SF-539 CNS): < 0.1 nM
TGI (SK-MEL-2 melanoma): 83.8 nM
TGI (SK-MEL-5 melanoma): 141 nM
GI50 (SK-OV-3 ovarian): 47.5 nM
TGI (SK-OV-3 ovarian): 18.7 µM
TGI (SN12C renal): 54.5 µM
TGI (SNB-19 CNS): 659 nM
TGI (SNB-75 CNS): 277 nM
GI50 (T-47D breast): > 100 µM
TGI (T-47D breast): > 100 µM
GI50 (TK-10 renal): 837 nM
TGI (TK-10 renal): 90.1 µM
TGI (U251 CNS): 2470 nM
GI50 (UACC-257 melanoma): 12.9 µM
TGI (UACC-257 melanoma): 36.5 µM

CCCCC1(NN=C2CCCCC2)C(=O)N(c2ccccc2)N(c2ccccc2)C1=O
TGI (786-0 renal): > 100000 nM
TGI (A549 NSCLC): > 100000 nM
TGI (ACHN renal): > 100 µM
TGI (BT-549 breast): > 100 µM
TGI (CAKI-1 renal): > 100 µM
TGI (CCRF-CEM leukemia): 40.7 µM
TGI (COLO 205 colon): > 100000 nM
TGI (DU-145 prostate): > 100 µM
TGI (EKVX NSCLC): > 100 µM
TGI (HCC-2998 colon): > 100000 nM
TGI (HCT-116 colon): > 100000 nM
TGI (HCT-15 colon): > 100 µM
TGI (HL-60(TB) leukemia): 38.4 µM
TGI (HOP-62 NSCLC): > 100000 nM
TGI (HS 578T breast): > 100000 nM
TGI (HT29 colon): > 100000 nM
TGI (IGROV1 ovarian): > 100000 nM
TGI (K-562 leukemia): 64.9 µM
TGI (KM12 colon): > 100 µM
TGI (M14 melanoma): > 100 µM
TGI (MCF7 breast): > 100 µM
TGI (MDA-MB-231 breast): > 100000 nM
TGI (MDA-MB-435): > 100000 nM
TGI (MDA-N): > 100000 nM
TGI (MOLT-4 leukemia): 66 µM
TGI (NCI-H23 lung): > 100 µM
TGI (NCI-H460 lung): > 100000 nM
TGI (NCI-H522 lung): > 100000 nM
TGI (NCI/ADR-RES ovarian): > 100 µM
TGI (OVCAR-3 ovarian): > 100000 nM
TGI (OVCAR-4 ovarian): > 100 µM
TGI (OVCAR-8 ovarian): > 100 µM
TGI (PC-3 prostate): > 100000 nM
TGI (RPMI-8226 leukemia): > 100 µM
TGI (RXF 393 renal): > 100 µM
TGI (SF-268 CNS): > 100 µM
TGI (SF-295 CNS): > 100 µM
TGI (SF-539 CNS): > 100 µM
TGI (SK-MEL-28 melanoma): > 100 µM
TGI (SK-MEL-5 melanoma): > 100000 nM
TGI (SK-OV-3 ovarian): > 100 µM
TGI (SN12C renal): > 100 µM
TGI (SNB-19 CNS): > 100000 nM
TGI (SNB-75 CNS): > 100000 nM
TGI (SR leukemia): 32.2 µM
TGI (SW-620 colon): > 100 µM
TGI (T-47D breast): > 100 µM
TGI (TK-10 renal): > 100 µM
TGI (U251 CNS): > 100000 nM
TGI (UACC-257 melanoma): > 100 µM
TGI (UACC-62 melanoma): > 100 µM
TGI (UO-31 renal): > 100 µM
